Data on three molecules can be found in patent US20100004168A1, “Use of Crystallin For The Modulation of Angiogenesis” (The Johns Hopkins University, priority 2006, published 2010).

“Also recorded” adds a separate entry of the source.

Data set [1] deals with Human astrocyte cell line (SVG). The data set can be described thus: VEGF and crystallin immunostaining in cultured astrocytes exposed to 3-nitropropionic acid. Particulars: 10 μM 3-NP. Type of data set: cell-based. As for the experimental part:
Human astrocyte cell line (SVG) was treated with 10 μM 3-NP, and cells were harvested for immunostaining with antibodies to VEGF and crystallins after 6, 12, and 24 hours. […] Fluorescence with both of the antibodies is increased after 12 hours of exposure to 3-NP in culture. […] Nuclei were counterstained with DAPI.
It has been shown that astrocytes are sensitive to hypoxia, which induces them to release VEGF (Chow et al., 2001; Sandercoe et al., 2003). To determine if astrocytes also express β- and γ-crystallins in response to hypoxia, 3-nitropropionic acid, an irreversible inhibitor of mitochondrial succinate dehydrogenase activity was used (Cavaliere et al., Neurochem Int 38:189-197, 2001). It can be considered a model substance to study hypoxic neuronal damage (Riepe et al., Neurosci Lett 211:9-12, 1996).
The SVG cell line used in this study was derived from human fetal astrocytes transformed with SV40 large T antigen (Major et al., J Biol Chem 278:13512-13519, 1985; Tornatore et al., Cell Transplant 5:145-163, 1996). Cultures of the human fetal astrocyte cell line (SVG) were maintained in Dulbecco's modified Eagle's medium with 2 mM L-glutamine, 10% fetal bovine serum, and streptomycin penicillin-fungizone solutions. Cells grown in 60-mm dishes were treated with 10 μM 3-nitropropionic acid (3NP) for 6, 12, and 24 hours at 37° C. and then fixed with paraformaldehyde (4%) for 15 minutes and blocked with 3% BSA at 4° C. overnight. The fixed cells were processed following standard techniques for immunofluorescence using VEGF and crystallin antibodies as indicated earlier.

Data set [2] concerns Human Retinal Endothelial Cells (HREC). The data set can be described thus: Matrigel tube formation in cultured human retinal endothelial cells. Type of data set: cell-based. The note with it: exogenously applied protein, Matrigel pre-coated plates, VEGF omitted from media supplement. As for the experimental part:
HREC were cultured in EGM2MV media according to the manufacturer's protocol either in the absence (FIG. 25A), or presence (FIG. 25B) of pre-coated Matrigel matrix (Cambrex). (4× magnification)
FIG. 28 is a graph showing the effect of Exogenous γ-crystallins, VEGF, and PEDF on Tube Length in Cultured Human Retinal Endothelial Cells (HREC): HREC grown on Matrigel-coated tissue culture plates in EGM2MV media with VEGF omitted from the media supplement. Cells were treated with BSA (control), 0.2 μg/ml VEGF, 0.6 μg/ml VEGF, concentrations of […] ranging from 0.5 μg/ml to 1.0 μg/ml, or 0.2 μg/ml PEDF. Average tube length was calculated after measuring all of the tubes formed in three separate optical fields from 7 individual culture dishes.
As reported above, a functionally significant effect of β/γ crystallins on vascular remodeling the effect of β/γ crystallins was established on human umbilical vein endothelial cells (HUVEC) in culture. Because the behavior of vascular endothelial cells varies according to their source and the resident tissue environment, the effect of β/γ crystallins on cultured human retinal endothelial cells (HREC) was subsequently analyzed. […] FIG. 28 quantifies these effects.

Data set [3] relates to HUVEC (Human umbilical vein endothelial cells). The data set can be described thus: Three-dimensional tube formation assay of HUVEC on Matrigel. Type of data set: cell-based. Particulars: HUVEC on Matrigel treated with purified proteins (crystallins 0.5 μg/ml), vs controls. An excerpt: In order to better understand the functional role of β/γ-crystallins in vascular remodeling, HUVEC (Human umbilical vein endothelial cells) were established in culture. HUVEC differentiation into tube-like structures in three dimensional Matrigel cultures has been commonly used as a model system to studying angiogenesis (Edelman et al. Exp. Eye Res. 80(2): 249-58, 2005; Xin et al. J. Biol. Chem. 274(13): 9116-21, 1999). After plating HUVEC onto Matrigel, the cells differentiated to form tubes and a capillary-like network at the minimum seeding density of 5×10^3 cells/well (FIGS. 20A-20F). These differentiated cells form tubes and express crystallins (FIGS. 21A and 21B).
The effect of β/γ crystallins and VEGF on HUVEC tube formation and regression was examined. VEGF protein used in this study was purchased from R&D Systems (Minneapolis, Minn.) and the polyclonal antibody was from Santa Cruz Biotechnology (Santa Cruz, Calif.). To prepare the crystallin proteins, lenses dissected from bovine eyes were homogenized in 7 volumes of 0.05M Tris buffer, pH 7.4 containing 0.1M KCl, 10 mM 2-mercaptoethanol and 0.02% NaN3. […] Fractions were collected and peaks analyzed by SDS-PAGE. […]
The cells were exposed to 0.2 μg/ml to 2 μg/ml of crystallin proteins, with a maximum effect at 0.5 μg/ml with negligible cell death as determined by trypan-blue exclusion. […]

The test system of data set [4] is Human Retinal Endothelial Cells (HREC). Particulars: relatively high dose tested (0.2 μg/ml PEDF); cited from earlier work.

Turning to `O=C(O)CC[N+](=O)[O-]` [3-NP, 3-nitropropionic acid], in data set [1] (6 hours), the “VEGF expression (immunostaining)” value is listed as “induction; also recorded: distinct cytoplasmic staining”; the “β- and γ-crystallin expression (immunostaining)” value is “induction; also recorded: distinct cytoplasmic staining”. In data set [1] (12 hours), the VEGF antibody fluorescence entry is “increased” and the γ-crystallin antibody fluorescence result is “increased”. In addition, the cell death entry in data set [1] (24 hours) is on record as “most of the cells have died”.
Consider VEGF, for which the “HREC vessel-like tube formation” value in data set [2] is reported as “enhanced”. In addition, the “tube length (tube processes)” value in data set [3] is “longer tubes”.

B1: PEDF: PEDF added at 0.2 μg/ml to HREC cultures (protein, UniProt P36955 20-418, looked up)
Pigment epithelium-derived …: QNPASPPEEGSPDPDSTGALVEEEDPFFKVPVNKLAAAVSNFGYDLYRVRSSTSPTTNVLLSPLSVATALSALSLGAEQRTESIIHRALYYDLISSPDIHGTYKELLDTVTAPQKNLKSASRIVFEKKLRIKSSFVAPLEKSYGTRPRVLTGNPRLDLQEINNWVQAQMKGKLARSTKEIPDEISILLLGVAHFKGQWVTKFDSRKTSLEDFYLDEERTVRVPMMSDPKAVLRYGLDSDLSCKIAQLPLTGSMSIIFFLPLKVTQNLTLIEESLTSEFIHDIDRELKTVQAVLTVPKLKLSYEGEVTKSLQEMKLQSLFDSPDFSKITGKPIKLTQVEHRAGFEWNEDGAGTTPSPGLQPAHLTFPLDYHLNQPFIFVLRDTDTGALLFIGKILDPRGP
For B1, in data set [4], the tube formation entry is reported as “stimulate tube formation”.
